Drawing on US20040024024A1, “Aromatic sulfone hydroxamates and their use as protease inhibitors” (priority 2001, published 2004), this text covers IC50 for 23 molecules.

Experiment in all cases: In vitro MMP inhibition, IC50 determination (fluorogenic substrate I)
Format in all cases: biochemical
Holding throughout (details): value outside parentheses

The target of one experiment is T1, Human recombinant MMP-2 (Homo sapiens, UniProt P08253).
T1 construct: made in house; host or cells: MMP-2-transfected p2AHT2 cells
T1 sequence (P08253 110-660): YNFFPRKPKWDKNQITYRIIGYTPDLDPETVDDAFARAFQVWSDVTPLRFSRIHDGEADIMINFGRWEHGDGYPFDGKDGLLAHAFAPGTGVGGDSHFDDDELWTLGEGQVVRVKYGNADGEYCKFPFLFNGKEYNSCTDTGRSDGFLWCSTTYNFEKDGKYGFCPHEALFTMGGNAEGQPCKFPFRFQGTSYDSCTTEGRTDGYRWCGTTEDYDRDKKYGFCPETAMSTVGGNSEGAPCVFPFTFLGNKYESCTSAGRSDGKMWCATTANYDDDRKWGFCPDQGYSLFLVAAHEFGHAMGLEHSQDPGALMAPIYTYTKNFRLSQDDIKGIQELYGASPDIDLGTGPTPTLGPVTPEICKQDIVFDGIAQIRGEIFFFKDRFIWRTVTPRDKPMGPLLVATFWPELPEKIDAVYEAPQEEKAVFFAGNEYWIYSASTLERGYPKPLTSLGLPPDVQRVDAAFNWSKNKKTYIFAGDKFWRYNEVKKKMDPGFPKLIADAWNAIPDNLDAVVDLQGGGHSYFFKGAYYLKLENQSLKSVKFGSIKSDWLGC
In a few lines:
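APMA- or trypsin-activated recombinant MMP-2 was incubated at room temperature with serial inhibitor dilutions in Tris buffer pH 7.5 (100 mM NaCl, 10 mM CaCl2, 0.05% Brij), with DMSO from 1% stocks, and 4 μM substrate I. Cleavage was read by fluorescence at 328/415 nm; IC50 was taken from the loss of fluorescence versus inhibitor concentration.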

The next experiment deals with T2, Human recombinant MMP-14 (Homo sapiens, UniProt P50281).
T2 construct: The catalytic domain enzyme was expressed in E. coli inclusion bodies, solubilized in urea; made in house
In a few lines: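 Catalytic-domain MMP-14, expressed in E. coli and refolded, activated with APMA or trypsin; compounds incubated at room temperature with 4 μM fluorogenic substrate I (MCA-PLGL-Dpa-AR-NH2) in Tris/NaCl/CaCl2 buffer, pH 7.5. Fluorescence at ex 328/em 415 nm; IC50 from loss of fluorescence versus inhibitor concentration.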

The target in a further experiment is T3, Human recombinant MMP-9 (Homo sapiens, UniProt P14780).
T3 construct: made in house; host or cells: MMP-9-transfected HT1080 cells (spent media)
In a few lines: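 MMP-9 proenzyme purified from transfected HT1080 cell media, activated with APMA or trypsin. Compound dilutions in pH 7.5 Tris/NaCl/CaCl2 buffer with 0.05% polyoxyethylene 23 lauryl ether, incubated at room temperature with 4 μM MCA/Dpa substrate I. IC50 from fluorescence loss (ex 328, em 415 nm) versus inhibitor concentration.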

The target of a further experiment is T4, Human recombinant MMP-13 (Homo sapiens, UniProt P45452).
T4 construct: made in house; host or cells: baculovirus / insect cells
In a few lines: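 Fluorescence at 415 nm (excitation 328 nm) reports Gly-Leu cleavage of 4 μM quenched methoxycoumarin peptide substrate I. Human recombinant MMP-13, activated by trypsin or APMA, was incubated at room temperature with varied inhibitor concentrations in pH 7.5 Tris/NaCl/CaCl2 buffer; IC50 derived from reduced fluorescence.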

In the next experiment the target is T5, Human recombinant MMP-1 (Homo sapiens, UniProt P03956).
T5 construct: made in house; host or cells: MMP-1-transfected HT-1080 cells (spent media)
T5 sequence (P03956 100-469): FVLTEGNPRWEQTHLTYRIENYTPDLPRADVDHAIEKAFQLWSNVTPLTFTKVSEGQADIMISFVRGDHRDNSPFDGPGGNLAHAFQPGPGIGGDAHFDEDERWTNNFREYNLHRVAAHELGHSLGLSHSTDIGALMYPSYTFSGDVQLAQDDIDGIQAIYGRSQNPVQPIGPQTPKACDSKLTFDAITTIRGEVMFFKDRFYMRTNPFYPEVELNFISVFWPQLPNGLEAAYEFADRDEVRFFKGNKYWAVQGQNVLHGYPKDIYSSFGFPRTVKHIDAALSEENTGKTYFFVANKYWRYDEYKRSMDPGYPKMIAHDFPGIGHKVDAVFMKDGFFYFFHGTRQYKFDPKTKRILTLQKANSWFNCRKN
In a few lines: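 APMA- or trypsin-activated enzyme, purified from spent media of transfected HT-1080 cells, incubated at room temperature with 4 μM MCA-Pro-Leu-Gly-Leu-Dpa-Ala-Arg-NH2 and graded inhibitor in Tris buffer pH 7.5 (10 mM CaCl2, 0.05% Brij). Cleavage read by fluorescence (ex 328/em 415 nm); IC50 from fluorescence reduction versus inhibitor concentration.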

Each structure is given as a SMILES string. pIC50: −log10 of the molar value. A value given as a limit tells only on which side of the number the result lay.

T3 sequence (P14780 107-707 limits assumed): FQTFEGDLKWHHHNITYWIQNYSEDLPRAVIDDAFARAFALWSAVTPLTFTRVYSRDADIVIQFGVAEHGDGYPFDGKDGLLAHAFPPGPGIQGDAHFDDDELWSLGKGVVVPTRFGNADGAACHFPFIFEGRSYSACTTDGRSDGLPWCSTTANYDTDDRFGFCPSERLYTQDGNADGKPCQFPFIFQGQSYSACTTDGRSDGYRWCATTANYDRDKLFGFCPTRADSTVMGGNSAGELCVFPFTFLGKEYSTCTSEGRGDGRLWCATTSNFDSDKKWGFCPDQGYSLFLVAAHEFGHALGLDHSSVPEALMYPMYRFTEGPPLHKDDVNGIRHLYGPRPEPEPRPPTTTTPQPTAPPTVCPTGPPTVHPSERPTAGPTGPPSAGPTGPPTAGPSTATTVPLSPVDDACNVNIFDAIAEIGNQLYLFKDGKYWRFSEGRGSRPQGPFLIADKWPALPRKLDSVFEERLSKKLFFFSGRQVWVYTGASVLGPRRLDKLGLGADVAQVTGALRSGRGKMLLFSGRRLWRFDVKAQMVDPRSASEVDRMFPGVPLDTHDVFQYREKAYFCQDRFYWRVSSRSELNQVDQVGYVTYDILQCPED

Usually pIC50 stands for the IC50 on a negative log10 scale, so that one unit is a factor of ten. Turning to `O=C(NO)C1(S(=O)(=O)c2ccc(OCCOCc3ccncc3)cc2)CCOCC1` [Example 516], the negative logarithm of the IC50 (pIC50) is 7.38 at Human recombinant MMP-2; 5.03 at Human recombinant MMP-14; 6.92 on Human recombinant MMP-9; 8.02 at Human recombinant MMP-13; < 5.00 on Human recombinant MMP-1.

For the molecule `O=C(NO)C1(S(=O)(=O)c2ccc(OCCCOCc3ccccn3)cc2)CCOCC1` [Example 519], the negative logarithm of the IC50 (pIC50) was 6.77 on Human recombinant MMP-2; < 5.00 at Human recombinant MMP-14; 6.38 at Human recombinant MMP-9; 8.66 on Human recombinant MMP-13; < 5.00 at Human recombinant MMP-1.

As for `O=C(NO)C1(S(=O)(=O)c2ccc(OCCCOCc3cccnc3)cc2)CCOCC1` [Example 520], the pIC50 at Human recombinant MMP-2 was 7.27; at Human recombinant MMP-14, 5.37; at Human recombinant MMP-9, 7.44; on Human recombinant MMP-13, 9.21; on Human recombinant MMP-1, < 5.00.

`O=C(NCCSc1ccc(S(=O)(=O)C2(C(=O)NO)CCOCC2)cc1)c1nc2ccccc2o1` [Example 576]: the pIC50 is 6.63 on Human recombinant MMP-2; < 5.00 at Human recombinant MMP-14; 6.40 at Human recombinant MMP-9; 9.52 on Human recombinant MMP-13; < 5.00 on Human recombinant MMP-1.

For the molecule `O=C(NO)C1(S(=O)(=O)c2ccc(OCCCc3cc(-c4ccc(F)c(F)c4)cs3)cc2)CCOCC1` [Example 580], the pIC50 on Human recombinant MMP-2 was 6.87; on Human recombinant MMP-14, < 5.00; on Human recombinant MMP-9, 6.38; at Human recombinant MMP-13, 9.22; at Human recombinant MMP-1 it was < 5.00.

Take `O=C(Cc1ccsc1)NCCOc1ccc(S(=O)(=O)C2(C(=O)NO)CCOCC2)cc1` [Example 601]: the negative logarithm of the IC50 (pIC50) on Human recombinant MMP-2 is 8.72; on Human recombinant MMP-14 it was 5.69; on Human recombinant MMP-9, 7.37; at Human recombinant MMP-13, 8.89; at Human recombinant MMP-1 it was 5.31.

Consider `O=C(NO)C1(S(=O)(=O)c2ccc(OCCCc3cc(-c4ccc(F)cc4)cs3)cc2)CCOCC1` [Example 607], for which the negative logarithm of the IC50 (pIC50) on Human recombinant MMP-2 is 7.34; at Human recombinant MMP-14 it was < 5.00; at Human recombinant MMP-9 it was 5.64; at Human recombinant MMP-13, 10.00; at Human recombinant MMP-1 it was < 5.00.

For `O=C(NO)C1(S(=O)(=O)c2ccc(OCCCc3cccc(C4CCCCN4)c3)cc2)CCN(C2CC2)CC1` (stereo not shown) [Example 609], the pIC50 is 6.24 at Human recombinant MMP-2; < 5.00 at Human recombinant MMP-14; 5.16 at Human recombinant MMP-9; 8.11 on Human recombinant MMP-13; < 5.00 on Human recombinant MMP-1.

On to `O=C(NO)C1(S(=O)(=O)c2ccc(OCCCSc3nc4ccccc4s3)cc2)CCN(CC2CC2)CC1` [Example 614], for which the negative-log IC50 (pIC50) on Human recombinant MMP-2 is 8.74; at Human recombinant MMP-14, 5.03; on Human recombinant MMP-9, 8.07; at Human recombinant MMP-13 it was 9.15; at Human recombinant MMP-1, < 5.00.

Take `COCCN1CCC(C(=O)NO)(S(=O)(=O)c2ccc(OCCCSc3nc4ccccc4s3)cc2)CC1` [Example 615]: the negative logarithm of the IC50 (pIC50) is 8.96 on Human recombinant MMP-2; 5.17 on Human recombinant MMP-14; 8.44 on Human recombinant MMP-9; 9.40 on Human recombinant MMP-13; < 5.00 on Human recombinant MMP-1.

In the case of `COc1ccc(CC(=O)NCCOc2ccc(S(=O)(=O)C3(C(=O)NO)CCOCC3)cc2)cc1` [Example 616], the negative-log IC50 (pIC50) was 8.28 at Human recombinant MMP-2; 5.71 on Human recombinant MMP-14; 7.26 on Human recombinant MMP-9; 8.70 at Human recombinant MMP-13; 5.80 on Human recombinant MMP-1.

Take `O=C(NO)C1(S(=O)(=O)c2ccc(OCCCS(=O)(=O)NC34CC5CC(CC(C5)C3)C4)cc2)CCOCC1` [Example 645]: the pIC50 on Human recombinant MMP-2 was 7.64; on Human recombinant MMP-14, < 5.00; on Human recombinant MMP-9 it was 5.76; on Human recombinant MMP-13 it was 8.37; at Human recombinant MMP-1 it was 5.03.

As for `NCc1ccc(OCCOc2ccc(S(=O)(=O)C3(C(=O)NO)CCOCC3)cc2)cc1` [Example 650], the negative-log IC50 (pIC50) on Human recombinant MMP-2 was 8.96; on Human recombinant MMP-14, 5.62; at Human recombinant MMP-9 it was 8.61; at Human recombinant MMP-13, 8.61; at Human recombinant MMP-1 it was 5.54.

For the molecule `COC(=O)c1ccc(OCCOc2ccc(S(=O)(=O)C3(C(=O)NO)CCOCC3)cc2)cc1` [Example 651], the negative-log IC50 (pIC50) at Human recombinant MMP-2 is 7.73; on Human recombinant MMP-14, 6.19; on Human recombinant MMP-9 it was 6.89; on Human recombinant MMP-13, 8.95; at Human recombinant MMP-1, < 5.00.

In the case of `O=C(CCCOc1ccc(S(=O)(=O)C2(C(=O)NO)CCOCC2)cc1)N1CC[C@@H](c2ccccc2)[C@@H](O)C1` [Example 652], the pIC50 on Human recombinant MMP-2 is 7.12; on Human recombinant MMP-14, < 5.00; at Human recombinant MMP-9, 6.65; at Human recombinant MMP-13, 9.02; on Human recombinant MMP-1 it was 5.44.

With `O=C(NO)C1(S(=O)(=O)c2ccc(OCCOCc3ccccc3)cc2)CCOCC1` [Example 653], the negative logarithm of the IC50 (pIC50) at Human recombinant MMP-2 was 7.60; at Human recombinant MMP-14, 5.60; at Human recombinant MMP-9, 7.31; at Human recombinant MMP-13, 8.25; on Human recombinant MMP-1, 5.41.

Take `CN(C(=O)CCCOc1ccc(S(=O)(=O)C2(C(=O)NO)CCOCC2)cc1)c1ccccc1` [Example 654]: the pIC50 at Human recombinant MMP-2 is 6.80; on Human recombinant MMP-14, < 5.00; on Human recombinant MMP-9 it was 6.01; at Human recombinant MMP-13, 9.26; at Human recombinant MMP-1 it was < 5.00.

Consider `O=C(NO)C1(S(=O)(=O)c2ccc(OCCOCC3CC3)cc2)CCOCC1` [Example 655], for which the negative logarithm of the IC50 (pIC50) at Human recombinant MMP-2 is 7.62; at Human recombinant MMP-14 it was < 5.00; at Human recombinant MMP-9, 7.16; on Human recombinant MMP-13, 7.55; at Human recombinant MMP-1, < 5.00.

Consider `O=C(NO)C1(S(=O)(=O)c2ccc(OCCCn3nnc(-c4ccc(OC(F)(F)F)cc4)n3)cc2)CCOCC1` [Example 656], for which the negative-log IC50 (pIC50) on Human recombinant MMP-2 was 6.39; at Human recombinant MMP-14, < 5.00; on Human recombinant MMP-9, 5.93; on Human recombinant MMP-13, 9.18; at Human recombinant MMP-1, < 5.00.

With `O=C(NO)C1(S(=O)(=O)c2ccc(OCCCn3nnc(-c4ccc(C(F)(F)F)cc4)n3)cc2)CCN(CC(F)(F)F)CC1` [Example 657], the pIC50 on Human recombinant MMP-2 is 6.50; on Human recombinant MMP-14, 5.46; on Human recombinant MMP-9 it was 6.42; at Human recombinant MMP-13, 5.22; at Human recombinant MMP-1, < 5.00.

For the molecule `CC(=O)c1cccc(OCCOc2ccc(S(=O)(=O)C3(C(=O)NO)CCOCC3)cc2)c1` [Example 658], the pIC50 is 6.81 at Human recombinant MMP-2; < 5.00 on Human recombinant MMP-14; 6.05 at Human recombinant MMP-9; 8.49 at Human recombinant MMP-13; < 5.00 on Human recombinant MMP-1.

`O=C(NO)C1(S(=O)(=O)c2ccc(OCCOCc3cccc(OC(F)(F)F)c3)cc2)CCOCC1` [Example 660]: the pIC50 was 7.73 on Human recombinant MMP-2; 5.46 on Human recombinant MMP-14; 7.08 on Human recombinant MMP-9; 8.85 on Human recombinant MMP-13; 5.13 on Human recombinant MMP-1.

Regarding `O=C(NO)C1(S(=O)(=O)c2ccc(OCCOCC3CCCCO3)cc2)CCOCC1` (stereo not shown) [Example 661], the negative-log IC50 (pIC50) was 7.11 on Human recombinant MMP-2; < 5.00 on Human recombinant MMP-14; 6.21 at Human recombinant MMP-9; 7.21 at Human recombinant MMP-13; < 5.00 at Human recombinant MMP-1.
